The record followed here is PubChem BioAssay AID489024 (Sanford-Burnham Center for Chemical Genomics, 2010).

What is called EC50 is the concentration giving half of the maximal effect.

Each structure is given as a SMILES string. Activity calls are given as the source filed them.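 The calls were made as follows: active = compounds whose mean EC50, the dose giving half the maximal reporter activation, is at or below a set limit; inactive = the rest.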

For the assay, the target named is CHO-CHOP luciferase reporter, UPR activation, luminescence. The assay is described as follows: activators of PERK-eIF2a-CHOP UPR arm, confirmation, CHO-CHOP cells, luciferase luminescence (AID 489024).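 Also: compounds added alone to reporter cells with no tunicamycin stress co-treatment.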
`COc1ccc(-c2nc(-c3ccccc3)nc(Cl)c2C#N)cc1`: the EC50 was 13.5 µM.
`COc1ccc(CCn2c(C)cc(C(=O)CCl)c2C)cc1OC`: the EC50 was > 80 µM (inactive).
As for `COc1ccc(NC(=O)c2nc(S(=O)(=O)Cc3cccc(C)c3)ncc2Cl)c(OC)c1`, the figure is 11.5 µM; as for `CCOc1cccc(C(=O)Nc2cccc(-c3nnc(-c4ccc(C)cc4)o3)c2)c1`, > 80 µM (inactive); as for `O=[N+]([O-])/C=C\c1ccc(N2CCOCC2)cc1`, 17.5 µM.
As for `COc1ccccc1-c1cc(C(F)(F)F)nc(S(=O)(=O)CCCC(=O)N2CCCCC2C)n1` (stereo not drawn), the figure is 7.68 µM.
For `Cc1c(C(=O)c2cccc3ccccc23)c2cccc3c2n1[C@H](CN1CCOCC1)CO3`, the EC50 was 12.4 µM.
As to `CNC[C@@H](Cc1ccccc1)NC[C@@H](CC1CCCCC1)NCCCc1ccccc1`, the EC50 is 4.63 µM.
To `CN(C)C(=O)CSc1cccc2cccnc12` belongs 8.15 µM.
As to `COc1ccc(/C=C/c2nc3cc(-c4ccccc4)ccc3o2)cc1O`, the EC50 is 12.7 µM.
As for `CCc1nc(N=Nc2c(O)[nH]c3ccccc23)c2c3c(sc2n1)CCC3`, the figure is 13.7 µM.
For `COc1cccc(N=Cc2c(O)c3ccccc3oc2=O)c1`, the EC50 is 8.69 µM.
To `O=C(N/N=C/c1ccccn1)c1cc([N+](=O)[O-])cc([N+](=O)[O-])c1` belongs “inactive”; to `Cc1ccccc1CS(=O)(=O)c1ncc(Cl)c(C(=O)Nc2ccc(F)cc2)n1`, > 80 µM (inactive); to `CSC(=S)N/N=C(\C)c1ccccc1`, 12.3 µM.
To `O=C(NC1CCCC1)C(c1ccc(F)cc1)N(Cc1ccc(Cl)cc1)C(=O)CCl` (stereo not drawn) belongs 7.8 µM.
As for `Cn1c(SCC(=O)NCC2CCCO2)ncc(C(=O)Nc2ccc(Cl)cc2)c1=O` (stereo not drawn), the figure is 16 µM; as for `COc1ccc(/C=N/Nc2cc(C)nc(-n3nc(C)cc3C)n2)c(OC)c1`, 7.32 µM.
In the case of `CC(C)c1ccc(/C=C(\c2nc3ccccc3[nH]2)S(=O)(=O)c2ccccc2)cc1`, the EC50 is 9.49 µM.
`Cc1cc(C)cc(N2C(=O)NC(=O)/C(=C\c3cccn3-c3ccccc3)C2=O)c1`: the EC50 is 13.9 µM.
As for `CC(C)c1cccc(-c2ccc3c(c2)S(=O)(=O)c2cccc(C(=O)NCc4ccccc4Cl)c2C3=O)c1`, the figure is 4.51 µM; as for `Cc1ccc2[nH]cc(C(=O)CCl)c2c1`, 7.64 µM; as for `O=C(CCl)Nc1cc(S(=O)(=O)N2CCCCCC2)ccc1Cl`, > 80 µM (inactive).
Take `CC(=O)N(\C=C/C=C/C=C1\Sc2ccccc2C1=O)c1ccccc1`: the EC50 is > 80 µM (inactive).
To `Oc1ccc(/C=N/Nc2cc(N3CCOCC3)nc(N3CCOCC3)n2)cc1O` belongs > 80 µM (inactive); to `CCOc1ccc2nc(SC3CC(=O)N(c4ccc(C)cc4)C3=O)sc2c1` (stereo not drawn), > 80 µM (inactive).
To `O=C1C=CC(=O)N1c1ccc(N2CCCCC2)cc1` belongs > 80 µM (inactive); to `O=C1NC(=O)C(=Cc2ccc(-c3ccc(Cl)cc3)o2)C(=O)N1`, 18.2 µM.
To `CCOc1cc(/C=C2/C(=O)ON=C2C)ccc1OCc1ccccc1F` belongs 15.9 µM.
Turning to `Cc1nc(SCC(=O)Nc2ccc(F)cc2)c(C#N)c(C)c1CC(=O)c1ccc(Br)cc1`, the EC50 was > 80 µM (inactive).
With `C[C@@H](NC(=O)c1coc(=O)c(Br)c1)c1ccccc1`, the EC50 is 9.34 µM.
As for `Oc1c(CN2CCCCC2)cc(Br)c2cccnc12`, the figure is 10.6 µM; as for `Cc1cccc(C)c1NC(=O)C(Cl)C(=O)c1ccccc1` (stereo not drawn), 19.3 µM.
As for `CCCCOC(=O)/C=C\C(=O)NC(N)=O`, the figure is 13.8 µM; as for `Oc1c(C(c2ccccc2Cl)N2CCCC2)ccc2cccnc12` (stereo not drawn), 5.76 µM.
To `CC1=NOC(=O)/C1=C\c1ccc(-c2cccc(Cl)c2)o1` belongs 13.1 µM; to `O=C(Nc1cccc(-c2nc3cccnc3s2)c1)C1c2ccccc2Oc2ccccc21`, 6.89 µM; to `COC(=O)[C@@H]1[C@@H](C#N)C2(c3ccccc3-c3ccccc32)N(c2ccc(Cl)cc2)N1C#N`, 13 µM.
Take `CCN(CC)S(=O)(=O)c1cc(NC(=O)Cn2ncc(Cl)c(Cl)c2=O)ccc1C`: the EC50 is 8.03 µM.
As for `O=C1NC(=O)N(Cc2ccccc2)C(=O)/C1=C\C=C\c1ccco1`, the figure is > 80 µM (inactive).
As for `N#CC12COC3(CCCCC3C1(C#N)C#N)OC2=N` (stereo not drawn), the figure is > 80 µM (inactive).
As for `Cc1c(C#N)c(NC(=O)CCl)n(Cc2ccc(F)cc2)c1C`, the figure is 16 µM.
Take `O=C(CCl)Nc1ccc(-c2ccccc2)cc1`: the EC50 was > 80 µM (inactive).
Consider `Cc1nc([N+](=O)[O-])c(Br)n1CC(=O)c1ccc2ccccc2c1`, for which the EC50 is > 80 µM (inactive).
Consider `COc1cc(NS(=O)(=O)c2ccc3ccccc3c2)c2ncccc2c1`, for which the EC50 is 7.5 µM.
Regarding `C=CCn1nc([N+](=O)[O-])nc1Sc1cccc2cccnc12`, the EC50 was 6.67 µM.
With `O=Cc1ccc(O)c2ncccc12`, the EC50 was 10.3 µM.
For `O=C(CSc1cccc2cccnc12)N/N=C/c1cccnc1`, the EC50 was 7.64 µM.
To `Cc1ccc(CS(=O)(=O)c2ncc(Cl)c(C(=O)Nc3ccc(OC(F)F)cc3)n2)cc1` belongs > 80 µM (inactive).
As for `Cc1cc(C)c2c(c1)/C(=c1/sc3n(c1=O)CN(c1ccccc1)CN=3)C(=O)N2`, the figure is 11.6 µM; as for `COc1ccc(/C=C2\CN(Cc3ccccc3)C/C(=C\c3ccc(OC)c(O)c3)C2=O)cc1O`, 2.75 µM.
Take `O=C1Nc2ccccc2/C1=C/C(=O)c1cccs1`: the EC50 is 14.4 µM.
As for `COc1ccc(O)c(/C=N/Nc2nc(Nc3ccccc3)nc(-n3nc(C)cc3C)n2)c1`, the figure is 5.05 µM.
As for `C=CCN1C(=O)/C(=C/c2ccc3c(c2)CCCN3CCC)C(=O)NC1=S`, the figure is 14 µM; as for `O=C(/C=C/Sc1ccccc1)c1ccc(Cl)cc1`, 10.6 µM.
To `O=C(Oc1oc(-c2ccco2)nc1C=Nc1ccc(Cl)cc1)c1ccco1` belongs 8.89 µM; to `O=C(C[C@H]1C[C@H](C(=O)N2CCCCC2)[C@@]2(CCc3ccccc3)c3[nH]c4ccc(Cl)cc4c3CCN2C1=O)NCCC1=CCCCC1`, “inactive”; to `CC1=C(/C=C/C(C)=C/C=C/C(C)=C/C(=O)Nc2ccc(O)cc2)C(C)(C)CCC1`, 14.3 µM.
`Cc1ccc(C(=O)Cn2c(C(=O)/C=C/c3ccccc3)nc3ccccc32)cc1`: the EC50 is 13.7 µM.
For `O=[N+]([O-])c1cc(-c2ncccn2)c([N+](=O)[O-])s1`, the EC50 was 7.51 µM.
As for `O=c1[nH]c(-c2ccc(-c3cccc(Cl)c3)o2)nc2ccccc12`, the figure is 12.9 µM; as for `Cc1nc2ccccc2n1-c1nc(-c2ccco2)cc(C(F)(F)F)n1`, 6.76 µM; as for `COc1cc(/C=C(/C#N)c2nc3ccccc3[nH]2)ccc1OCC(=O)Nc1ccccc1C(C)C`, 8.27 µM.
Turning to `COc1ccc(OC)c(N=Cc2c(O)c3ccccc3oc2=O)c1`, the EC50 was 7.55 µM.
As for `CCOc1ccc(-c2nnc(SCC(=O)Nc3ccc4c(c3)c3ccccc3n4CC)n2N)cc1`, the figure is 12.6 µM; as for `Cc1cc(C)n(-c2nc(NC(C)(C)C)nc(NC(C)(C)C)n2)n1`, > 80 µM (inactive).
For the compound `Cc1ccc(NC(=O)Cn2ncc(Cl)c(Cl)c2=O)cc1S(=O)(=O)N1CCCCC1`, the EC50 was 6.45 µM.
To `CCOC(=O)c1cnc(Nc2nc3ccccc3o2)nc1CSC(=S)N(CC)CC` belongs 0.91 µM.
